Assay results reported in US7160862B2, “Integrin binding motif containing peptides and methods of treating skeletal diseases” (Acologix, Inc., priority 2000, dated 2007).
Where no end group is shown, it is not given here.

How the values were obtained:
[1] = system: calvaria from 4-days-old mice; assay: Fetal mouse calvarial assay (mouse calvarial organ culture, histomorphometry of new bone area); format: cell-based; settings: 7-day organ culture of mouse calvaria halves in BGj medium with 0.1% BSA
Description: FGF-1 was purchased from Peprotech Inc. (Rocky Hill, N.J.). RGD-1, 2, 3, 4, 5 and 6 (referred to here as D-00001, D-00002, D-00003, D-00004, D-00005 and D-00006) were provided by Dr. Nomizu (Hokkaido University, Japan).
Pregnant ICR mice were purchased from SLC Japan Co. Ltd. (Shizuoka, Japan).
Mouse calvarial organ culture was performed as described in Mundy G et al. Science 286: 1946–1949, 1999 and Traianedes K et al. Endocrinology 139: 3178–3184, 1998. The calvaria from 4-days-old mice were excised and cut in half along the sagittal suture. Each half of the calvaria was placed on a stainless steel grid in a 12-well tissue culture dish (Asahi Glass Techno Corp., Funabashi, Japan). Each well contained 1.5 ml of BGj medium (Sigma, St. Louis, Mo.) supplemented with 0.1% bovine serum albumin (Sigma) and each compound. FGF-1 was used as a positive control as described by Mundy et al. The medium was changed at day 1 and 4, and the assay was terminated at day 7.
Calvaria was fixed with 10% neutral-buffered formalin, decalcified with 4.13% EDTA and embedded in paraffin. […] sections were made and stained with hematoxylin and eosin. New bone area was measured using Image-Pro Plus (Media Cybernetics, Silver Spring, Md.).

[2] = system: calvariae of four week old mice; assay: In vivo bone formation study (mouse calvaria growth assay); settings: for bone area of calvaria sections compared to vehicle treated group: s.c. adjacent to calvariae twice a day for five days, D-00006 20 μg/kg/day, FGF-1 12.5 μg/kg/day, excised 15 days after last administration
Description: FGF-1 was purchased from Peprotech Inc. (Rocky Hill, N.J.). RGD-6 (referred to here as D-00006) was synthesized by CS Bio (San Carlos, Calif.) under the instruction of the inventors.
Four week old mice were purchased from SLC Japan Co. Ltd. (Shizuoka, Japan) and randomized to three groups (n=5).
D-00006 (20 μg/kg/day), FGF-1 (12.5 μg/kg/day), or vehicle (saline) was subcutaneously injected into the soft tissues adjacent to the calvariae of the test animals. The daily amount of the samples were divided by two, respectively, and injected twice a day for five days. After 15 days of the last administration, the calvariae were excised and cut in half along the sagittal suture, and provided to the Histomorphometrical analysis.
Calvaria was fixed with 10% neutral-buffered formalin, decalcified with 4.13% EDTA and embedded in paraffin. 4mm-thickness sections were made and stained with hematoxylin and eosin. New bone area was measured using Image-Pro Plus (Media Cybernetics, Silver Spring, Md.).

[3] = system: ovariectomized female Sprague-Dawley rats; assay: Effect on renal phosphate excretion in ovariectomized rats (serum and urine chemistry); format: in vivo, rat; settings: Ovx rats, D-00006 20 and 200 μg/kg/day
Description: Forty 3-month old virgin female Sprague-Dawley rats (Harlan Sprague Dawley, Inc.) were acclimated for one week prior to beginning the experiments.
One day prior to the initiation of treatments, the animals were anesthetized with a ketamin/xylazine anesthetic mixture, and animals in groups 2–5 were ovariectomized.
Urine was collected in metabolic cages on Day 41. Blood and urine samples were collected for chemistry and bone turnover markers assays at the end of the 41-day treatment period. Prior to urine and blood collections, the animals were placed in metabolic cages and deprived of food for an overnight fast period of 18 hours. Urine samples were collected and the volumes recorded. The urine samples were then centrifuges at approximately 3000×g for 10 minutes in a refrigerated centrifuge. The samples were filtered to remove contaminating sediments.

Substance | ability to enhance bone growth (new bone area) [1] | bone area of calvaria sections compared to vehicle treated group [2] | efficacy on bone area relative to FGF-1 ([2]; D-00006 20 μg/kg/day vs FGF-1 12.5 μg/kg/day) | serum phosphorus ([3]; 41-day treatment) | total amount of phosphorus in the 18-hour urine collections ([3]; Day 41) | percentage of tubular reabsorption of phosphorus ([3]; derived urine parameter) | phosphate clearance ([3]; derived urine parameter)
ERGDNDISPFSGDGQ (ERGDNDISPFSGDGQ-NH2) [D-00004] | best results | – | – | – | – | – | –
FGF-1: fibroblast growth factor-1 purchased from Peprotech Inc., used as a positive control [reference compound] | – | significant expansion of bone area | – | – | – | – | –
TDLQERGDNDISPFSGDGQPFKD [D-00006] | best results | significant expansion of bone area | equivalent to that of FGF-1 | dose-dependent increase | significant decrease | higher | lower
